Measured values as given in paper PMC4813245, “Discovery of Dual ETA/ETB Receptor Antagonists from Traditional Chinese Herbs through in Silico and in Vitro Screening” (International Journal of Molecular Sciences, 2016).
pIC50: −log10 of the molar value. Read-outs that look alike come from different tables or passages of the source. Non-standard residues stand in square brackets, D forms with d. Residues, ends and D or L forms follow the SMILES beside them.

Columns and labels:
[1] = target: T1, ETB receptor (ETBR) (Homo sapiens, UniProt P24530); test: ET-1-induced intracellular calcium mobilization (Fluo-4) in HEK293/ETBR cells, antagonist mode; type: cell-based
T1 construct: gene EDNRB
T1 sequence (P24530 27-442): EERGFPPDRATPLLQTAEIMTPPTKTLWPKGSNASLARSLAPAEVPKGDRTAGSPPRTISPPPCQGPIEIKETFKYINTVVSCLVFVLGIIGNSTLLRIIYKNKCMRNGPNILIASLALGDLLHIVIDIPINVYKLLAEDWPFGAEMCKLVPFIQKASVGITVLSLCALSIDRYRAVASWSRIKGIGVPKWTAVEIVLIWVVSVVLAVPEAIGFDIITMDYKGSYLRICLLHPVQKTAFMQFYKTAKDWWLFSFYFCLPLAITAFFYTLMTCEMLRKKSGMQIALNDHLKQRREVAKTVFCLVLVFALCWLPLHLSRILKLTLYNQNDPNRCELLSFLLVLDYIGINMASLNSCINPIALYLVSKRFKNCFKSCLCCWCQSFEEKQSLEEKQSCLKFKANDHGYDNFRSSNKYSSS

[2] = target: T2, ETA receptor (ETAR) (Homo sapiens, UniProt P25101); test: ET-1-induced intracellular calcium mobilization (Fluo-4) in HEK293/ETAR cells, antagonist mode; type: cell-based
T2 construct: gene EDNRA
T2 sequence (P25101 21-427): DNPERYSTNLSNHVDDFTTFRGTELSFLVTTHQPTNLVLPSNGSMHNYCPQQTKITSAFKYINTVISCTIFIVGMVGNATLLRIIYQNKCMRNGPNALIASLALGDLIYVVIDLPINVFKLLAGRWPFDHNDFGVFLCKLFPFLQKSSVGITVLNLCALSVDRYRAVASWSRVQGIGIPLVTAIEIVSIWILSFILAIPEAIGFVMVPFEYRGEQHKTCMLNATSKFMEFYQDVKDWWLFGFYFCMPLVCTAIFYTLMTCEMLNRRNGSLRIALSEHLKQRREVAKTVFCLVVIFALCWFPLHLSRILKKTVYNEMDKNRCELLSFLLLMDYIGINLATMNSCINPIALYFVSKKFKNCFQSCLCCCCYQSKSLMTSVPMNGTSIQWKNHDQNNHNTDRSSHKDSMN

Row | SMILES | pIC50 [1] | pIC50 [2] | pIC50 ([1]; read-out: IC50)
1 | COc1cccc2c1cc([N+](=O)[O-])c1c(C(=O)O)cc3c(c12)OCO3 [Aristolochic acid A] | 5.13 | 5.10 | 
2 | CC(C)C[C@@H]1NC(=O)[C@@H](C(C)C)NC(=O)[C@@H]2CCCN2C(=O)[C@@H](CC(=O)O)NC(=O)[C@@H](Cc2c[nH]c3ccccc23)NC1=O [BQ-123] (cyclo(L[dW][dD]P[dV])) |  | 9.57 | 
3 | CCCC[C@@H](NC(=O)[C@@H](Cc1cn(C(=O)OC)c2ccccc12)NC(=O)[C@H](CC(C)(C)C)NC(=O)N1[C@H](C)CCC[C@@H]1C)C(=O)O [BQ-788] |  |  | 10.30
